From PubChem BioAssay (NCI)
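GI50: concentration for 50% inhibition of growth. The concentration for full growth arrest is given as TGI.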

Experiments:
Experiment in all cases: NCI anticancer screen, dose series, 384-well format
COLO 205 colon = test system: COLO 205 colon
SNB-19 CNS = test system: SNB-19 CNS
HCT-15 colon = test system: HCT-15 colon
ACHN renal = test system: ACHN renal
NCI-H23 lung = test system: NCI-H23 lung
RXF 393 renal = test system: RXF 393 renal
SK-MEL-5 melanoma = test system: SK-MEL-5 melanoma
HS 578T breast = test system: HS 578T breast
RPMI-8226 leukemia = test system: RPMI-8226 leukemia
BT-549 breast = test system: BT-549 breast
NCI/ADR-RES ovarian = test system: NCI/ADR-RES ovarian
MDA-MB-231 breast = test system: MDA-MB-231 breast
UACC-257 melanoma = test system: UACC-257 melanoma
786-0 renal = test system: 786-0 renal
NCI-H522 lung = test system: NCI-H522 lung
OVCAR-4 ovarian = test system: OVCAR-4 ovarian
U251 glioblastoma = test system: U251 glioblastoma
K-562 leukemia = test system: K-562 leukemia
OVCAR-3 ovarian = test system: OVCAR-3 ovarian
MALME-3M melanoma = test system: MALME-3M melanoma
HOP-92 NSCLC = test system: HOP-92 NSCLC
MOLT-4 leukemia = test system: MOLT-4 leukemia
CCRF-CEM leukemia = test system: CCRF-CEM leukemia
M14 melanoma = test system: M14 melanoma
EKVX NSCLC = test system: EKVX NSCLC
SR leukemia = test system: SR leukemia
DU-145 prostate = test system: DU-145 prostate
KM12 colon = test system: KM12 colon
MDA-MB-435 melanoma = test system: MDA-MB-435 melanoma
NCI-H322M lung = test system: NCI-H322M lung
HT29 colon = test system: HT29 colon
SK-OV-3 ovarian = test system: SK-OV-3 ovarian
MDA-MB-468 breast = test system: MDA-MB-468 breast
SK-MEL-28 melanoma = test system: SK-MEL-28 melanoma
A498 renal = test system: A498 renal
UO-31 renal = test system: UO-31 renal
NCI-H460 NSCLC = test system: NCI-H460 NSCLC
TK-10 renal = test system: TK-10 renal
T-47D breast = test system: T-47D breast
SF-539 CNS = test system: SF-539 CNS
SN12C renal = test system: SN12C renal
HCC-2998 colon = test system: HCC-2998 colon
SF-295 CNS = test system: SF-295 CNS
SNB-75 CNS = test system: SNB-75 CNS
IGROV1 ovarian = test system: IGROV1 ovarian
NCI-H226 lung = test system: NCI-H226 lung
UACC-62 melanoma = test system: UACC-62 melanoma
SW-620 colon = test system: SW-620 colon
LOX IMVI melanoma = test system: LOX IMVI melanoma
CAKI-1 renal = test system: CAKI-1 renal
A549 NSCLC = test system: A549 NSCLC
HOP-62 NSCLC = test system: HOP-62 NSCLC
MCF7 breast = test system: MCF7 breast
HCT-116 colon = test system: HCT-116 colon
OVCAR-8 ovarian = test system: OVCAR-8 ovarian
SF-268 CNS = test system: SF-268 CNS

## CCCCS(=O)c1sc2nc(-c3cccs3)cc(-c3ccccc3)c2c1N (configuration not stated)
COLO 205 colon
  GI50: 34.4 µM
  TGI: > 100 µM
SNB-19 CNS
  GI50: 32.5 µM
  TGI: > 100 µM
HCT-15 colon
  GI50: 19.1 µM
  TGI: > 100 µM
ACHN renal
  GI50: 31.7 µM
  TGI: > 100 µM
NCI-H23 lung
  GI50: 21.4 µM
  TGI: 97.9 µM
RXF 393 renal
  GI50: 20.4 µM
  TGI: 95.5 µM
SK-MEL-5 melanoma
  GI50: 13.8 µM
  TGI: 26.8 µM
HS 578T breast
  GI50: 14.1 µM
  TGI: 76.2 µM
RPMI-8226 leukemia
  GI50: 4.38 µM
  TGI: 14.6 µM
BT-549 breast
  GI50: 16.5 µM
  TGI: 45.6 µM
NCI/ADR-RES ovarian
  GI50: 14 µM
  TGI: 59 µM
MDA-MB-231 breast
  GI50: 25.7 µM
  TGI: > 100 µM
UACC-257 melanoma
  GI50: 26.9 µM
  TGI: 84.1 µM
786-0 renal
  GI50: 27.9 µM
  TGI: > 100 µM
NCI-H522 lung
  GI50: 17 µM
  TGI: 90.5 µM
OVCAR-4 ovarian
  GI50: 30.4 µM
  TGI: > 100 µM
U251 glioblastoma
  GI50: 23.2 µM
  TGI: > 100 µM
K-562 leukemia
  GI50: 8.47 µM
  TGI: > 100 µM
OVCAR-3 ovarian
  GI50: 16.7 µM
  TGI: 43.5 µM
MALME-3M melanoma
  GI50: 28.8 µM
  TGI: 73.2 µM
HOP-92 NSCLC
  GI50: 26.4 µM
  TGI: 99.2 µM
MOLT-4 leukemia
  GI50: 6.07 µM
  TGI: 18.1 µM
CCRF-CEM leukemia
  GI50: 11.4 µM
  TGI: 28.3 µM
M14 melanoma
  GI50: > 100 µM
  TGI: > 100 µM
EKVX NSCLC
  GI50: 27.8 µM
  TGI: > 100 µM
SR leukemia
  GI50: 3.73 µM
  TGI: 8.78 µM
DU-145 prostate
  GI50: 28.7 µM
  TGI: > 100 µM
KM12 colon
  GI50: > 100 µM
  TGI: > 100 µM
MDA-MB-435 melanoma
  GI50: 36.1 µM
  TGI: > 100 µM
NCI-H322M lung
  GI50: 32.2 µM
  TGI: > 100 µM
HT29 colon
  GI50: 26 µM
  TGI: > 100 µM
SK-OV-3 ovarian
  GI50: 31.9 µM
  TGI: > 100 µM
MDA-MB-468 breast
  GI50: 15 µM
  TGI: 42.7 µM
SK-MEL-28 melanoma
  GI50: > 100 µM
  TGI: > 100 µM
A498 renal
  GI50: 21.2 µM
  TGI: 79.2 µM
UO-31 renal
  GI50: 29.2 µM
  TGI: > 100 µM
NCI-H460 NSCLC
  GI50: 13.7 µM
  TGI: 32.4 µM
TK-10 renal
  GI50: 29.5 µM
  TGI: > 100 µM
T-47D breast
  GI50: 19.2 µM
  TGI: > 100 µM
SF-539 CNS
  GI50: 23.9 µM
  TGI: 52.2 µM
SN12C renal
  GI50: 65 µM
  TGI: > 100 µM
HCC-2998 colon
  GI50: 27.2 µM
  TGI: 63.3 µM
SF-295 CNS
  GI50: 19.6 µM
  TGI: 96.5 µM
SNB-75 CNS
  GI50: 27.2 µM
  TGI: > 100 µM
IGROV1 ovarian
  GI50: 38.6 µM
  TGI: > 100 µM
NCI-H226 lung
  GI50: 25.7 µM
  TGI: 74.6 µM
UACC-62 melanoma
  GI50: > 100 µM
  TGI: > 100 µM
SW-620 colon
  GI50: > 100 µM
  TGI: > 100 µM
LOX IMVI melanoma
  GI50: 16.7 µM
  TGI: 38.1 µM
CAKI-1 renal
  GI50: 31.9 µM
  TGI: > 100 µM
A549 NSCLC
  GI50: 12.5 µM
  TGI: > 100 µM
HOP-62 NSCLC
  GI50: 29.9 µM
  TGI: 93.8 µM
MCF7 breast
  GI50: 13.5 µM
  TGI: 90.7 µM
HCT-116 colon
  GI50: 26 µM
  TGI: 91 µM
OVCAR-8 ovarian
  GI50: 25.2 µM
  TGI: > 100 µM
SF-268 CNS
  GI50: > 100 µM
  TGI: > 100 µM
